Inconclusive results and toxic doses are left out. Square brackets hold non-standard residues; d marks the D form. Peptide text beside a SMILES is read from it. Ac5c = NC1(C(=O)O)CCCC1

For the assay, the system named is L1210 leukemia ip in BDF1 mice, survival T/C. In words: NCI In Vivo Anticancer Drug Screen. Data for tumor model L1210 Leukemia (intraperitoneal) in B6D2F1 (BDF1) mice. As to conditions: endpoint: mean survival time, higher = longer survival. Put shortly: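 Transplantable tumor model; survival measured in treated vs vehicle control mice. Value = treated/control.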

Where [1] appears, read: dose: 100.0 mg/kg/injection, schedule: Q01DX001 (ip), vehicle: saline with Tween-80.
Where [2] appears, read: dose: 200.0 mg/kg/injection, schedule: Q01DX001 (ip), vehicle: saline with Tween-80.
[3] abbreviates: dose: 400.0 mg/kg/injection, schedule: Q01DX001 (ip), vehicle: saline with Tween-80.
Where [4] appears, read: dose: 100.0 mg/kg/injection, schedule: Q01DX009 (ip), vehicle: saline with Tween-80.
The mark [5] stands for this setting: dose: 200.0 mg/kg/injection, schedule: Q01DX009 (ip), vehicle: saline with Tween-80.
Where [6] appears, read: dose: 100.0 mg/kg/injection, schedule: Q04DX003 (ip), vehicle: saline.
Where [7] appears, read: dose: 200.0 mg/kg/injection, schedule: Q04DX003 (ip), vehicle: saline.
[8] abbreviates: dose: 100.0 mg/kg/injection, schedule: Q01DX009 (ip), vehicle: Klucel (hydroxypropylcellulose) (HPC).
[9] abbreviates: dose: 100.0 mg/kg/injection, schedule: Q04DX003 (ip), vehicle: Klucel (hydroxypropylcellulose) (HPC).
The mark [10] stands for this setting: dose: 200.0 mg/kg/injection, schedule: Q01DX009 (ip), vehicle: Klucel (hydroxypropylcellulose) (HPC).
[11] abbreviates: dose: 200.0 mg/kg/injection, schedule: Q04DX003 (ip), vehicle: Klucel (hydroxypropylcellulose) (HPC).
Setting [12] is: dose: 400.0 mg/kg/injection, schedule: Q01DX009 (ip), vehicle: Klucel (hydroxypropylcellulose) (HPC).
Setting [13] is: dose: 400.0 mg/kg/injection, schedule: Q04DX003 (ip), vehicle: Klucel (hydroxypropylcellulose) (HPC).
Setting [14] is: dose: 100.0 mg/kg/injection, schedule: Q01DX001 (ip), vehicle: carboxymethylcellulose (CMC).
[15] abbreviates: dose: 200.0 mg/kg/injection, schedule: Q01DX001 (ip), vehicle: carboxymethylcellulose (CMC).
The mark [16] stands for this setting: dose: 400.0 mg/kg/injection, schedule: Q01DX001 (ip), vehicle: carboxymethylcellulose (CMC).

Regarding `Cc1ccc(S(=O)(=O)OCC(C)(C)NC(=O)c2ccc([N+](=O)[O-])cc2)cc1`, the T/C runs as follows: under setting [1], 91 % of control; under setting [2], 105 % of control; under setting [3], 91 % of control.

As to `O=CNC(Cc1ccc(OCc2ccccc2)cc1)C(=O)O` (stereo unspecified), the T/C is 98 % of control (dose: 50.0 mg/kg/injection, schedule: Q01DX009 (ip), vehicle: saline with Tween-80); 89 % of control under setting [1]; 96 % of control under setting [4]; 95 % of control under setting [2]; 98 % of control under setting [5]; 88 % of control under setting [3].

In the case of `NC1(C(=O)NCC(=O)O)CCCC1` (H-[Ac5c]-Gly-OH), the T/C under setting [6] is 104 % of control and the T/C under setting [7] is 100 % of control.

Take `CN=C(N)NC`: the T/C (dose: 50.0 mg/kg/injection, schedule: Q01DX009 (ip), vehicle: saline) is 94 % of control; the T/C (dose: 100.0 mg/kg/injection, schedule: Q01DX009 (ip), vehicle: saline) was 100 % of control; the T/C (dose: 100.0 mg/kg/injection, schedule: Q04DX003 (ip), vehicle: saline with Tween-80) was 98 % of control; the T/C (dose: 200.0 mg/kg/injection, schedule: Q01DX009 (ip), vehicle: saline) was 91 % of control; the T/C (dose: 200.0 mg/kg/injection, schedule: Q04DX003 (ip), vehicle: saline with Tween-80) is 97 % of control.

On to `O=C(Nc1ccc(Cl)c(Cl)c1)Oc1ccc(C2CCCCC2)cc1`, for which the T/C under setting [8] is 95 % of control; the T/C under setting [9] is 111 % of control; the T/C under setting [10] is 95 % of control; the T/C under setting [11] was 109 % of control; the T/C under setting [12] was 97 % of control; the T/C under setting [13] is 101 % of control.

Turning to `CC(CNC(=O)CCOS(C)(=O)=O)CNC(=O)CCOS(C)(=O)=O`, the T/C by setting is: under setting [14], 115 % of control; (dose: 100.0 mg/kg/injection, schedule: Q04DX003 (ip), vehicle: other) 105 % of control; (dose: 132.0 mg/kg/injection, schedule: Q01DX009 (ip), vehicle: other) 113 % of control; under setting [15], 107 % of control; (dose: 200.0 mg/kg/injection, schedule: Q01DX009 (ip), vehicle: other) 122 % of control; (dose: 200.0 mg/kg/injection, schedule: Q04DX003 (ip), vehicle: other) 121 % of control. In addition, the T/C reads like this: (dose: 264.0 mg/kg/injection, schedule: Q04DX003 (ip), vehicle: saline) 114 % of control; under setting [16], 120 % of control.

For the molecule `c1ccc(P(OCCCCOP(c2ccccc2)c2ccccc2)c2ccccc2)cc1`, the T/C (dose: 50.0 mg/kg/injection, schedule: Q01DX001 (ip), vehicle: saline) was 95 % of control; the T/C under setting [14] is 103 % of control; the T/C (dose: 100.0 mg/kg/injection, schedule: Q01DX001 (ip), vehicle: saline) is 97 % of control; the T/C under setting [15] is 114 % of control; the T/C (dose: 200.0 mg/kg/injection, schedule: Q01DX001 (ip), vehicle: saline) was 86 % of control; the T/C under setting [16] was 103 % of control. For the same molecule, the T/C (dose: 400.0 mg/kg/injection, schedule: Q01DX001 (ip), vehicle: saline) is 95 % of control.

As for `COc1ccc2c(c1)CC(=CO)CC2=O.COc1ccc2c(c1)CC/C(=C/O)C2=O.[Cu]`, the T/C runs as follows: under setting [4], 98 % of control; (dose: 100.0 mg/kg/injection, schedule: Q04DX003 (ip), vehicle: saline sonified) 101 % of control; under setting [5], 110 % of control; (dose: 200.0 mg/kg/injection, schedule: Q04DX003 (ip), vehicle: saline sonified) 90 % of control; (dose: 400.0 mg/kg/injection, schedule: Q04DX003 (ip), vehicle: saline sonified) 104 % of control.

As for `CCCCCCCCCC(C)CCCCCCC` (stereo unspecified), the T/C under setting [1] was 103 % of control, the T/C under setting [2] is 97 % of control and the T/C under setting [3] is 100 % of control.

On to `CCOC(=O)CNC(c1ccccc1)(c1ccccc1)c1ccccc1`, for which the T/C was 106 % of control under setting [8]; 91 % of control under setting [9]; 90 % of control under setting [10]; 91 % of control under setting [11]; 90 % of control under setting [12]; 98 % of control under setting [13].

Regarding `Fc1ccc(CSc2ncnc3c2ncn3C2CCCCO2)cc1` (stereo unspecified), the T/C reads like this: (dose: 3.0 mg/kg/injection, schedule: Q01DX015 (ip), vehicle: carboxymethylcellulose (CMC)) 97 % of control; (dose: 6.0 mg/kg/injection, schedule: Q01DX015 (ip), vehicle: carboxymethylcellulose (CMC)) 97 % of control; (dose: 12.0 mg/kg/injection, schedule: Q01DX015 (ip), vehicle: carboxymethylcellulose (CMC)) 98 % of control; (dose: 25.0 mg/kg/injection, schedule: Q01DX015 (ip), vehicle: carboxymethylcellulose (CMC)) 102 % of control; (dose: 50.0 mg/kg/injection, schedule: Q01DX015 (ip), vehicle: carboxymethylcellulose (CMC)) 101 % of control; under setting [14], 96 % of control. Besides, the T/C was 103 % of control (dose: 100.0 mg/kg/injection, schedule: Q01DX015 (ip), vehicle: carboxymethylcellulose (CMC)); 96 % of control under setting [15]; 119 % of control (dose: 200.0 mg/kg/injection, schedule: Q01DX015 (ip), vehicle: carboxymethylcellulose (CMC)); 102 % of control under setting [16]; 166 % of control (dose: 400.0 mg/kg/injection, schedule: Q01DX015 (ip), vehicle: carboxymethylcellulose (CMC)); 102 % of control (dose: 800.0 mg/kg/injection, schedule: Q01DX001 (ip), vehicle: carboxymethylcellulose (CMC)). For the same molecule, under “dose: 1600.0 mg/kg/injection, schedule: Q01DX001 (ip), vehicle: carboxymethylcellulose (CMC)”, the T/C was 112 % of control.

For the molecule `c1ccc(-c2oc(-c3ccccc3)c3ccccc23)cc1`, the T/C was 101 % of control (dose: 6.25 mg/kg/injection, schedule: Q01DX009 (ip), vehicle: Klucel (hydroxypropylcellulose) (HPC)); 96 % of control (dose: 6.25 mg/kg/injection, schedule: Q04DX003 (ip), vehicle: Klucel (hydroxypropylcellulose) (HPC)); 102 % of control (dose: 12.5 mg/kg/injection, schedule: Q01DX009 (ip), vehicle: Klucel (hydroxypropylcellulose) (HPC)); 93 % of control (dose: 12.5 mg/kg/injection, schedule: Q04DX003 (ip), vehicle: Klucel (hydroxypropylcellulose) (HPC)); 96 % of control (dose: 25.0 mg/kg/injection, schedule: Q01DX009 (ip), vehicle: Klucel (hydroxypropylcellulose) (HPC)); 96 % of control (dose: 25.0 mg/kg/injection, schedule: Q04DX003 (ip), vehicle: Klucel (hydroxypropylcellulose) (HPC)).

For the molecule `O=[N+]([O-])c1cccc2c1/C(=N/O)c1ccccc1-2`, the T/C under setting [14] was 101 % of control, the T/C under setting [15] was 92 % of control and the T/C under setting [16] was 98 % of control.

Consider `[NH-]C(CCC(N)=O)C(=O)O.[NH-]C(CCC(N)=O)C(=O)O.[Pd+2]` (stereo unspecified), for which the T/C was 102 % of control (dose: 100.0 mg/kg/injection, schedule: Q04DX002 (ip), vehicle: saline); 98 % of control under setting [6]; 102 % of control (dose: 200.0 mg/kg/injection, schedule: Q04DX002 (ip), vehicle: saline); 92 % of control under setting [7]; 102 % of control (dose: 400.0 mg/kg/injection, schedule: Q04DX002 (ip), vehicle: saline).

As to `Cc1ccc(N=Nc2ccc([N+](=O)[O-])cc2)c([N+](=O)[O-])c1`, the T/C is 96 % of control under setting [14], 93 % of control under setting [15] and 96 % of control under setting [16].

The record behind these values is PubChem BioAssay AID248 (DTP/NCI, 2004).
